In article PMC9738531, “Cholinesterases Inhibition, Anticancer and Antioxidant Activity of Novel Benzoxazole and Naphthoxazole Analogs” (Molecules, 2022):
Read-outs that look alike come from different tables or passages of the source.

What was measured:
[1] = DPPH free radical scavenging activity; settings: concentration scavenging 50% of DPPH radicals; means ± SD of three experiments
Experimental: To evaluate the antioxidant potential of compounds as radical scavengers versus the stable free radicals, 2,2-diphenylpicrylhydrazyl (DPPH) was applied. Antioxidant properties were expressed as the IC50 value—the concentration of compound required for scavenging 50% of DPPH radicals. […].
The DPPH free radical scavenging activities of the synthesized compounds were measured by DPPH, according to the method described in the paper. The free radical scavenging activity was measured as a decrease in the absorbance of DPPH, and calculated using the equation:DPPH scavenging effects (%) = […] [(A0 − A1)/A0]∙100](2) where: A0 was the absorbance of the control reaction and A1 absorbance in the presence of the sample of the analysed compounds [62]. The IC50 values were calculated as the concentration of compound required for scavenging 50% of DPPH [45]. Results were presented as the mean ± standard deviation (SD). The antioxidant activity data were compared using the one-way ANOVA test at the significance level 5%.

[2] = biological target: T1, Acetylcholinesterase (AChE, E.C. 3.1.1.7, from human erythrocytes) (Homo sapiens, UniProt P22303); experiment: biochemical; settings: for IC50: means ± SEM of three independent experiments
T1 construct: Acetylcholinesterase (AChE, E.C. 3.1.1.7, from human erythrocytes); purchased Sigma-Aldrich (Steinheim, Germany); host or cells: human erythrocytes (natural source)
Experimental: (§1) The compounds were evaluated by an in vitro assay as the AChE and BChE inhibitors. The studies were carried out using the modified Ellman’s method. […] The inhibitory activities against AChE and BChE of the newly-synthesized compounds were determined exactly, according to a previous paper. […] The samples were analysed in triplicate. IC50 values were designated from a dose–response curve obtained by plotting the percentage of inhibition versus the log concentration, using GraphPad Prism 8 software. […] AChE and BChE activity data were compared using the Kruskal–Wallis test at the significance level of 1%.

[3] = biological target: T2, butyrylcholinesterase (BChE, E.C. 3.1.1.8, from equine serum) (Equus caballus, UniProt P81908); experiment: biochemical; settings: means ± SEM of three independent experiments
T2 construct: butyrylcholinesterase (BChE, E.C. 3.1.1.8, from equine serum); purchased Sigma-Aldrich (Steinheim, Germany); host or cells: equine serum (natural source)
Experimental: as §1

[4] = tested on: A549 (non-small cell lung carcinoma) cells; experiment: SRB antiproliferative assay, A549; format: cell-based, human; settings: means ± SD
Experimental: (§2) The compounds were also evaluated for their antiproliferative potencies against human cancer cell lines as the potential anticancer agents. […]. The results are presented in Table 3 and expressed as IC50 (μM). In that score, the highest potency was shown by the analogs from the naphtho[1,2-d][1,3]oxazole group 8–10, particularly by derivative 10 with a chlorine atom on the benzenediol moiety.
(§3) In the antiproliferative assay in vitro, the following human cell lines were applied: T47D (breast cancer), SW707 (rectal adenocarcinoma), A549 (non-small cell lung carcinoma) from the American Type Culture Collection (Rockville, MD, USA) and HCV29T (bladder cancer) from the Fibiger Institute, Copenhagen, Denmark. Cytotoxicity assay was performed after 72 h exposure of the cultured cells at the concentration ranging from 0.1 to 100 μg/mL of the tested agents. The SRB test measuring the cell proliferation inhibition in the in vitro culture was applied. The cellular material fixed with TCA was stained with 0.4% sulforhodamine B (Chemie GmbH, Steinheim, Germany) dissolved in 1% acetic acid (POCh, Gliwice, Poland) for 30 min.

[5] = tested on: normal mammary gland MCF10A cells; experiment: LDH cytotoxicity assay, MCF10A normal cells; format: cell-based, human; settings: 72 h
Experimental: (§4) In view of the observed antiproliferative activity, the influence of the tested compounds on the normal human cells—normal mammary gland epiterial cells of the MCF10A line and the normal keratenocytes HaCaT line—was examined (Figure 5). The cells were treated with compounds 3, 8 and 10 in the concentration range from 0.1 µM to 25 µM for 72 h, after which the cell viability was tested by analysis of the level of released lactate dehydrogenase (LDH method).
(§5) Normal human epithelial cells from the mammary gland, MCF10A (a generous gift from our colleague Dr. Saraswati Sukumar (JHU), who obtained them recently from ATCC), and normal human keratinocytes HaCaT (also obtained from ATCC), were cultured in DMEM/F12 medium (Gibco), supplemented with 5% horse serum (Gibco), 5% FBS (Sigma-Aldrich Chemie GmbH, Taufkirchen, Germany ), penicillin streptomycin solution (1×) (Gibco) at 37 °C and 5% CO2. The cells were subcultured twice a week.
(§6) Human epiterial breast cells MCF10A and human keratinocytes HaCaT (1 × 10^4/mL) cells were placed on 96-well plates (Nunc, Roskilde, Denmark). The next day, the cells were exposed to increasing concentrations of compounds 3, 8 and 10 in 0.1, 0.25, 0.5, 1, 2.5, 5, 10 and 25 μM in fresh culture medium. Cytotoxicity was estimated based on the measurements of cytoplasmic lactate dehydrogenase (LDH) activity released from the damaged cells after the 72 h exposure to the compounds. The LDH assay was performed according to the manufacturer’s instructions (Cytotoxicity Detection KitPLUS LDH, Roche, Mannheim, Germany). Absorbance was measured using a microplate at two different wavelengths: “measurement wavelength” (492 nm) and “reference wavelength” (690 nm), using a microplate.

[6] = Lipophilicity by RP-18 HPLC chromatography; format: physicochemical; settings: for -S (slope of log k vs MeOH fraction): MeOH/acetate buffer, pH 7.4; for log kw: pH 7.4, extrapolation to pure water as mobile phase
Text: The lipophilicity parameter was estimated for the tested compounds as it is an important feature that influences the pharmacokinetic properties of bioactive compounds [46, 47]. Lipophilicity also determines some biological activities, such as the antiproliferative or fungistatic activity. For lipophilicity determination, reversed-phase column chromatography was used, with the octadecyl C-18 stationary phase and MeOH as the organic modifier in the isocratic conditions.
HPLC measurements were performed using a liquid chromatograph (Knauer, Berlin, Germany) with a dual pump and a UV-visible detector. The measurements were made at 254 or 320 nm at room temperature. A Eurosil Bioselect C18 (5 μm, 300 × 4.6 mm) column was applied as the stationary phase. The mobile phase consisted of different volume mixtures of 20 mM acetate buffer as the aqueous phase, and MeOH as the organic modifier (pH 7.4). The different concentrations of MeOH from 0.5 to 0.90 (v/v) range was used, depending on the structure of the compound at 0.05 intervals. The flow rate was 1 mL/min. Retention time of an unretained solute (t0) was determined by the injection of a small amount of acetone dissolved in water.
Regular changes in the retention coefficients of compounds in a function of the organic modifier MeOH content in the mobile phase are described by the Soczewiński–Wachtmeister equation [56]:log k = log kw + S φ(1)
φ—the volume fraction of organic modifier (MeOH) in the mobile phase; log kw—the intercept; S—slope of the regression curve. Log kw refers to the retention parameter of a compound with pure water as the mobile phase.

[7] = tested on: T47D (breast cancer) cells; experiment: SRB antiproliferative assay, T47D; format: cell-based, human; settings: 72 h, means ± SD
Experimental: as §2, §3

[8] = tested on: SW707 (rectal adenocarcinoma) cells; experiment: SRB antiproliferative assay, SW707; format: cell-based, human; settings: means ± SD, read-out: IC50 SW 707
Experimental: as §2, §3

[9] = tested on: HCV29T (bladder cancer) cells; experiment: SRB antiproliferative assay, HCV29T; format: cell-based, human; settings: 72 h, means ± SD, read-out: IC50 HCV 29T
Experimental: as §2, §3

[10] = tested on: normal keratinocytes HaCaT cells; experiment: LDH cytotoxicity assay, HaCaT normal cells; format: cell-based, human; settings: 72 h; for toxicity to keratinocytes (LDH release): HaCaT
Experimental: as §4, §5, §6

AChE = biological target: T3, AChE (Homo sapiens, UniProt P22303); experiment: Kinetic study of AChE inhibition (Lineweaver-Burk); format: biochemical; settings: for type of AChE inhibition: Lineweaver-Burk plot
T3 construct: Acetylcholinesterase (AChE, E.C. 3.1.1.7, from human erythrocytes); purchased Sigma-Aldrich (Steinheim, Germany); host or cells: human erythrocytes (natural source)
Experimental: Ellman’s method was used to prepare a kinetic characterization of AChE inhibition for compound 8. […]. The tested medium contained DTNB solution (0.4 mg/mL), AChE solution (2 U/mL), solution of the examined compound 8, and different concentrations of the ATCh iodide substrate solution (S). Absorbance was detected at 412 nm at room temperature after 10 min. The obtained data were calculated and presented on the Lineweaver–Burk plot. The determined the Michaelis–Menten constant (KM) and the maximum velocity of the enzyme (Vmax) values were used to define the type of enzyme inhibition.

T1 sequence (P22303 other isoform, or with tags, fused parts or gaps): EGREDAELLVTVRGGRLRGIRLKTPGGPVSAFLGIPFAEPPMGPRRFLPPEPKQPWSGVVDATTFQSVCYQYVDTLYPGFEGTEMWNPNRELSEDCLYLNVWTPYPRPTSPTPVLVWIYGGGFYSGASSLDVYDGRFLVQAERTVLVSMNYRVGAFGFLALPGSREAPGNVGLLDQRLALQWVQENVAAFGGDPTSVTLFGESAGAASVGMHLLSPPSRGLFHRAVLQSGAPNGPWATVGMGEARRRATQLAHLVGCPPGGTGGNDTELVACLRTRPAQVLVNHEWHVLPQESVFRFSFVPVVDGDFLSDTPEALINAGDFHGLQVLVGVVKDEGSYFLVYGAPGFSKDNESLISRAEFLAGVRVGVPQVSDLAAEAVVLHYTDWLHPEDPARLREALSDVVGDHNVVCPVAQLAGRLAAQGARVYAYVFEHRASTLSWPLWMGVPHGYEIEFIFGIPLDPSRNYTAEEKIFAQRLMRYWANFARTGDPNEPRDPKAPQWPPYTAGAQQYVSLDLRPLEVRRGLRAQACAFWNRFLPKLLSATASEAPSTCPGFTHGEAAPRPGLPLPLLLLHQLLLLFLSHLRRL
T3 sequence (P22303 other isoform, or with tags, fused parts or gaps): as above
T2 sequence (P81908 whole entry): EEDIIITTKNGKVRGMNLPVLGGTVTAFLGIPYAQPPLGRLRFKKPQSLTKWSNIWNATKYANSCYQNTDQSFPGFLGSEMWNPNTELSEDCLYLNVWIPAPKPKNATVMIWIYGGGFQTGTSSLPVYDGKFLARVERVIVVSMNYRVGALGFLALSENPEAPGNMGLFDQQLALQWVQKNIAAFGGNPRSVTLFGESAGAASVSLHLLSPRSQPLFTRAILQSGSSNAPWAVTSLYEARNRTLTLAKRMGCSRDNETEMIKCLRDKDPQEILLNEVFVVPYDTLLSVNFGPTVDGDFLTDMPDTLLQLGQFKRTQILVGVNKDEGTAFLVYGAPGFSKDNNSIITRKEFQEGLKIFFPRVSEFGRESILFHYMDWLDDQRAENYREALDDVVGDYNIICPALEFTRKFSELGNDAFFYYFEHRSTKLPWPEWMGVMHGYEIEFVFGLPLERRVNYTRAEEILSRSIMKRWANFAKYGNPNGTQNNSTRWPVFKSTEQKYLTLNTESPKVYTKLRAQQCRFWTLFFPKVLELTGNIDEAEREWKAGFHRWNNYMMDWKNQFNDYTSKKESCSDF

Structure (SMILES) | IC50 [1] | IC50 [2] | IC50 [3] | IC50 ([4]; Homo sapiens, A549, 72 h) | -S (slope of log k vs MeOH fraction) [6] | log kw [6] | IC50 ([7]; Homo sapiens, T47D) | IC50 ([8]; Homo sapiens, SW707, 72 h) | IC50 ([9]; Homo sapiens, HCV29T) | other results
COC(=O)c1ccc2nc(-c3ccc(O)cc3O)oc2c1 [Compound 3, Methyl 2-(2,4-dihydroxyphenyl)-1,3-benzoxazole-6-carboxylate] | 0.286 ± 0.122 µM | 0.113 ± 0.011 µM | 1.13 ± 0.016 µM | 4.28 ± 0.55 µM | 5.325 | 2.92 | 3.37 ± 1.52 µM | 5.47 ± 2.16 µM | 6.43 ± 1.12 µM | Selectivity for AChE ([2]; IC50 (BChE)/IC50 (AChE)): 10.017; toxicity to normal breast cells (LDH release) ([5]; 0.1–10 µM): not toxic; change in lactate dehydrogenase levels ([5]; 5 and 10 µM, vs control): statistically significant reduction; toxicity to keratinocytes (LDH release) ([10]; 0.1–10 µM): not toxic; change in lactate dehydrogenase levels ([10]; HaCaT, 2.5, 5 and 10 µM, vs control): statistically significant reduction
COC(=O)c1ccc2nc(-c3ccc(O)c(C)c3O)oc2c1 [Compound 4, Methyl 2-(2,4-dihydroxy-3-methylphenyl)-1,3-benzoxazole-6-carboxylate] |  |  |  | 3.71 ± 0.4 µM | 5.002 | 3.411 | 3.2 ± 0.84 µM | 3.36 ± 0.84 µM | 4.64 ± 0.93 µM | 
CCc1cc(-c2nc3ccc(C(=O)OC)cc3o2)c(O)cc1O [Compound 5, Methyl 2-(5-ethyl-2,4-dihydroxyphenyl)-1,3-benzoxazole-6-carboxylate] |  |  |  | 3.08 ± 0.26 µM | 5.855 | 3.774 | 4.11 ± 1.27 µM | 2.13 ± 0.49 µM | 3.54 ± 1.05 µM | 
N.N.[Cl][Pt][Cl] [cisplatin, reference compound] |  |  |  |  |  |  |  |  |  | IC50 ([4]; 72 h): 3.07 ± 0.45 µM; IC50 [7]: 4.01 ± 1.58 µM; IC50 ([8]; 72 h): 3.65 ± 0.76 µM; IC50 [9]: 2.4 ± 0.32 µM
O=c1c(O)c(-c2ccc(O)c(O)c2)oc2cc(O)cc(O)c12 [quercetin, reference compound] | 0.032 ± 0.001 µM |  |  |  |  |  |  |  |  | 
Oc1ccc(-c2nc3c(ccc4ccccc43)o2)c(O)c1 [Compound 8, 4-(Naphtho[1,2-d][1,3]oxazol-2-yl)benzene-1,3-diol] | 0.452 ± 0.031 µM | 0.058 ± 0.01 µM | 0.981 ± 0.015 µM | 4.17 ± 0.19 µM | 4.263 | 3.936 | 2.86 ± 0.18 µM | 3.35 ± 0.16 µM | 2.5 ± 1.88 µM | type of AChE inhibition (AChE): mixed-type inhibitor; type of AChE inhibition (AChE; listed as 4-(Naphtho[1,2-d][1,3]oxazol-2-yl)benzene-1,3-diol): mixed-type inhibition; Vmax (AChE; compound 8 concentration 25 nM): 0.031 A/min; Vmax (AChE; compound 8 concentration 50 nM): 0.023 A/min; Vmax (AChE; compound 8 concentration 75 nM): 0.021 A/min; influence on mammary cells viability (LDH) ([5]; 0.1–5 µM): no influence; toxicity to keratinocytes (LDH release) ([10]; whole tested range 0.1–25 µM): toxic
